Results published in patent publication US11192891B2, “Diazaspiro ROCK inhibitors” (BRISTOL-MYERS SQUIBB COMPANY, priority 2017, dated 2021).
pIC50: −log10 of the molar value.

Target: ROCK2 (Homo sapiens, UniProt O75116)
Assay: ROCK kinase inhibition assay, FITC peptide substrate, LABCHIP 3000 readout
Assay type: biochemical
Details: 5 μM ATP, 1.5 μM peptide substrate
Method in brief: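 Tested across a concentration range, with percent inhibition of kinase activity derived per concentration. Peptide phosphorylation, initiated by adding the Rho kinase variant (final DMSO <2%), was quenched with EDTA and substrate/product resolved by mobility shift.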

Chain of ROCK2 (O75116 whole entry, species assumed): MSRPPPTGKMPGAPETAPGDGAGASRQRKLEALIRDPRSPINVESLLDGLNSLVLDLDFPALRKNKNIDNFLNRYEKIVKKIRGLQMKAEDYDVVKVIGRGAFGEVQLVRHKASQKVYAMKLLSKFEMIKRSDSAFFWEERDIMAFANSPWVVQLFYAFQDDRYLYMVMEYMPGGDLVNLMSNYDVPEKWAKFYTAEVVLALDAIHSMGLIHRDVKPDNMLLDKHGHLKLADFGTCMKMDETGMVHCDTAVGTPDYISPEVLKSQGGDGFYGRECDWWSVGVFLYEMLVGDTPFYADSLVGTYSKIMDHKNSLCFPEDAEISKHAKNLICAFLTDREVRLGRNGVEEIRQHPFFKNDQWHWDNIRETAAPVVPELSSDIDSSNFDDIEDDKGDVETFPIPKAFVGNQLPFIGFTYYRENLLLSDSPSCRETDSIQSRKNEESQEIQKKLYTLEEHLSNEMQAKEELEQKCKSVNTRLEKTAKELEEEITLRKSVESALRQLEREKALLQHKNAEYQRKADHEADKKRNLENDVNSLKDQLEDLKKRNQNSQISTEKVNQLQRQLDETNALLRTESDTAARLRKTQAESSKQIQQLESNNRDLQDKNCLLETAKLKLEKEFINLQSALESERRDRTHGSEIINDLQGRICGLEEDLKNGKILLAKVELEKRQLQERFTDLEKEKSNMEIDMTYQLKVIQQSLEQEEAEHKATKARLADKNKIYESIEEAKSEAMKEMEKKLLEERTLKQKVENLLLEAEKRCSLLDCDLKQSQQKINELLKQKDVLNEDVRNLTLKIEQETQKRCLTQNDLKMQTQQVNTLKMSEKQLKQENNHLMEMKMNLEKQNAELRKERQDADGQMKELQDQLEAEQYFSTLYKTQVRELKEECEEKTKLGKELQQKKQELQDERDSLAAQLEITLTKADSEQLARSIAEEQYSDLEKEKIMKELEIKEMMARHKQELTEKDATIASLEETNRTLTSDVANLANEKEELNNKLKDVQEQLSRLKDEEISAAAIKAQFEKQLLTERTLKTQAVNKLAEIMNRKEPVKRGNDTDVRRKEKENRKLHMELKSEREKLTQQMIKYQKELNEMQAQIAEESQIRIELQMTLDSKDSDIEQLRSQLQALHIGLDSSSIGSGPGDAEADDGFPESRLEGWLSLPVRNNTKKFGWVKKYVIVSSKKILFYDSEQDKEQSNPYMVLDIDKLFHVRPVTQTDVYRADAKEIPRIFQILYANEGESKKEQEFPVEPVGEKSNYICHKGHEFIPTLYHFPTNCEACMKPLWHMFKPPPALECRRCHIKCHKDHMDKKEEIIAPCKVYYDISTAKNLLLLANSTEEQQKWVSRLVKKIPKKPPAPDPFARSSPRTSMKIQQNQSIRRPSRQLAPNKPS

Row | pIC50 | SMILES
1 | 7.28 | COc1cc(N2CCC3(CCN(C(=O)c4ccc(CO)cc4)CC3)C2=O)ccc1-c1cn[nH]c1 [Example 15, 8-[4-(hydroxymethyl)benzoyl]-2-[3-methoxy-4-(1H-pyrazol-4-yl)phenyl]-2,8-diazaspiro[4.5]decan-1-one]
2 | 9.52 | COc1cc(N2CCC3(CCN(C(=O)c4ccc(N5CCN(C)CC5)cc4)CC3)C2=O)ccc1-c1cn[nH]c1 [Example 120, 2-[3-methoxy-4-(1H-pyrazol-4-yl)phenyl]-8-[4-(4-methylpiperazin-1-yl)benzoyl]-2,8-diazaspiro[4.5]decan-1-one]
3 | 7.24 | COc1cc(N2CCC3(CCN(C(=O)c4ccc(-n5cnnn5)cc4)CC3)C2=O)ccc1-c1cn[nH]c1 [Example 118]
4 | 7.15 | COc1cc(N2CCC3(CCN(C(=O)c4ccc5oc(C)nc5c4)CC3)C2=O)ccc1-c1cn[nH]c1 [Example 119, 2-[3-methoxy-4-(1H-pyrazol-4-yl)phenyl]-8-(2-methyl-1,3-benzoxazole-5-carbonyl)-2,8-diazaspiro[4.5]decan-1-one]
5 | 7.92 | COc1cc(N2CCC3(CCN(C(=O)c4ccc(-n5cccc5)cc4)CC3)C2=O)ccc1-c1cn[nH]c1 [Example 193, 2-[3-methoxy-4-(1H-pyrazol-4-yl)phenyl]-8-[4-(1H-pyrrol-1-yl)benzoyl]-2,8-diazaspiro[4.5]decan-1-one]
6 | 10.00 | COc1cc(N2CCC3(CCN(C(=O)c4ccc(N5CCN(Cc6ccc(N(C)C)cc6)CC5)cc4)CC3)C2=O)ccc1-c1cn[nH]c1 [Example 245, 8-[4-(4-{[4-(dimethylamino)phenyl]methyl}piperazin-1-yl)benzoyl]-2-[3-methoxy-4-(1H-pyrazol-4-yl)phenyl]-2,8-diazaspiro[4.5]decan-1-one]
7 | 7.12 | COc1cc(N2CCC3(CCN(C(=O)c4ccc(-c5noc(C(C)C)n5)cc4)CC3)C2=O)ccc1-c1cn[nH]c1 [Example 134, 2-[3-methoxy-4-(1H-pyrazol-4-yl)phenyl]-8-{4-[5-(propan-2-yl)-1,2,4-oxadiazol-3-yl]benzoyl}-2,8-diazaspiro[4.5]decan-1-one]
8 | 8.00 | COc1cc(N2CCC3(CCN(C(=O)c4ccc(C5CC5)cc4)CC3)C2=O)ccc1-c1cn[nH]c1 [Example 19, 8-(4-cyclopropylbenzoyl)-2-[3-methoxy-4-(1H-pyrazol-4-yl)phenyl]-2,8-diazaspiro[4.5]decan-1-one]
9 | 7.17 | COc1cc(N2CCC3(CCN(C(=O)c4cc(C(F)(F)F)n(C)n4)CC3)C2=O)ccc1-c1cn[nH]c1 [Example 107, 2-[3-methoxy-4-(1H-pyrazol-4-yl)phenyl]-8-[1-methyl-S-(trifluoromethyl)-1H-pyrazole-3-carbonyl]-2,8-diazaspiro[4.5]decan-1-one]
10 | 6.71 | COc1cc(N2CCC3(CCN(C(=O)C4CCN(c5ccncc5)CC4)CC3)C2=O)ccc1-c1cn[nH]c1 [Example 175, 2-[3-methoxy-4-(1H-pyrazol-4-yl)phenyl]-8-[1-(pyridin-4-yl)piperidine-4-carbonyl]-2,8-diazaspiro[4.5]decan-1-one]
11 | 7.30 | COc1cc(N2CCC3(CCN(C(=O)c4ccc(Cl)cc4F)CC3)C2=O)ccc1-c1cn[nH]c1 [Example 75, 8-(4-chloro-2-fluorobenzoyl)-2-[3-methoxy-4-(1H-pyrazol-4-yl)phenyl]-2,8-diazaspiro[4.5]decan-1-one]
12 | 6.36 | COc1cc(N2CCC3(CCN(C(=O)c4ccncc4)CC3)C2=O)ccc1-c1cn[nH]c1 [Example 56, 2-[3-methoxy-4-(1H-pyrazol-4-yl)phenyl]-8-(pyridine-4-carbonyl)-2,8-diazaspiro[4.5]decan-1-one]
13 | 8.52 | COc1cc(N2CCC3(CCN(C(=O)c4ccc(N5CCOC5=O)cc4)CC3)C2=O)ccc1-c1cn[nH]c1 [Example 141, 2-[3-methoxy-4-(1H-pyrazol-4-yl)phenyl]-8-[4-(2-oxo-1,3-oxazolidin-3-yl)benzoyl]-2,8-diazaspiro[4.5]decan-1-one]
14 | 9.05 | COc1cc(N2CCC3(CCN(C(=O)c4ccc(N5CCN(Cc6cccn6C)CC5)cc4)CC3)C2=O)ccc1-c1cn[nH]c1 [Example 228, 2-[3-methoxy-4-(1H-pyrazol-4-yl)phenyl]-8-(4-{4-[(1-methyl-1H-pyrrol-2-yl)methyl]piperazin-1-yl}benzoyl)-2,8-diazaspiro[4.5]decan-1-one]
15 | 8.28 | CCN(CC)c1ccc(C(=O)N2CCC3(CC2)CCN(c2ccc(-c4cn[nH]c4)c(OC)c2)C3=O)cc1 [Example 194, 8-[4-(diethylamino)benzoyl]-2-[3-methoxy-4-(1H-pyrazol-4-yl)phenyl]-2,8-diazaspiro[4.5]decan-1-one]
16 | 7.68 | COc1ccc(C(=O)N2CCC3(CC2)CCN(c2ccc(-c4cn[nH]c4)cc2)C3=O)cc1 [Example 4, 8-(4-methoxybenzoyl)-2-[4-(1H-pyrazol-4-yl)phenyl]-2,8-diazaspiro[4.5]decan-1-one]
17 | 6.96 | COc1cc(N2CCC3(CCN(C(=O)c4cnc(C)cn4)CC3)C2=O)ccc1-c1cn[nH]c1 [Example 79, 2-[3-methoxy-4-(1H-pyrazol-4-yl)phenyl]-8-(5-methylpyrazine-2-carbonyl)-2,8-diazaspiro[4.5]decan-1-one]
18 | 7.48 | COc1cc(N2CCC3(CCN(C(=O)c4ccc(Br)cc4)CC3)C2=O)ccc1-c1cn[nH]c1 [Example 195, 8-(4-bromobenzoyl)-2-[3-methoxy-4-(1H-pyrazol-4-yl)phenyl]-2,8-diazaspiro[4.5]decan-1-one]
19 | 6.55 | COc1ccc(S(=O)(=O)N2CCC3(CCN(c4ccc(-c5cn[nH]c5)c(OC)c4)C3=O)CC2)cc1F [Example 212, 8-(3-fluoro-4-methoxybenzenesulfonyl)-2-[3-methoxy-4-(1H-pyrazol-4-yl)phenyl]-2,8-diazaspiro[4.5]decan-1-one]

Tested on: rat models of hypertension
Assay: not given
Details: control rats; cited from earlier work

Row | SMILES | effect on blood pressure in control rats
20 | C[C@@H](N)[C@H]1CC[C@H](C(=O)Nc2ccncc2)CC1 [Example Y-27632] | only a minor effect on blood pressure

Same assay, conditions: spontaneously hypertensive, renal hypertensive and deoxycortisone acetate salt hypertensive rat models; cited from earlier work

Row | SMILES | effect on blood pressure in hypertensive rats
21 | C[C@@H](N)[C@H]1CC[C@H](C(=O)Nc2ccncc2)CC1 [Example Y-27632] | significantly decrease blood pressure

Tested on: neointimal formation
Assay: not given
Details: rats; cited from earlier work

Row | SMILES | neointimal formation
22 | C[C@@H](N)[C@H]1CC[C@H](C(=O)Nc2ccncc2)CC1 [Example Y-27632] | inhibited neointimal formation

Tested on: IL-1 beta-induced coronary stenosis
Assay: not given
Details: long term treatment, porcine model; cited from earlier work

Row | SMILES | coronary constrictive remodeling | coronary stenosis
23 | O=S(=O)(c1cccc2cnccc12)N1CCCNCC1 [fasudil] | promote a regression of coronary constrictive remodeling | progressively reduce coronary stenosis

Tested on: rat stroke model
Assay: not given
Details: cited from earlier work

Row | SMILES | infarct size and neurologic deficit
24 | O=S(=O)(c1cccc2cnccc12)N1CCCNCC1 [fasudil] | reduce both the infarct size and neurologic deficit

Tested on: Dahl salt-sensitive rats
Assay: not given
Details: cited from earlier work

Row | SMILES | ventricular hypertrophy, fibrosis and function
25 | C[C@@H](N)[C@H]1CC[C@H](C(=O)Nc2ccncc2)CC1 [Example Y-27632] | improve ventricular hypertrophy, fibrosis and function
